Results from ChEMBL document CHEMBL1201861, “Genomics of Drug Sensitity in Cancer screening data, Wellcome Trust Sanger Institute”.

Assays:
ASPC1 = experiment: cells; format: functional, cell-based; conditions: Homo sapiens;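 also: growth inhibition of AsPC-1 cells, read out with a cell viability assay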
Description: SANGER: Inhibition of human AsPC-1 cell growth in a cell viability assay.

HCC2157 = experiment: cells; format: functional, cell-based; conditions: Homo sapiens;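 also: growth inhibition of the cancer cell line, read out as cell viability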
Description: SANGER: Inhibition of human HCC2157 cell growth in a cell viability assay.

UACC-62 = experiment: cells; format: functional, cell-based; conditions: Homo sapiens;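 also: growth inhibition of human UACC-62 cells, read out by a cell viability assay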
Description: SANGER: Inhibition of human UACC-62 cell growth in a cell viability assay.

SK-MEL3 = experiment: cells; format: functional, cell-based, SK-MEL-3; conditions: Homo sapiens;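 also: growth inhibition of human SK-MEL-3 cells, read out with a cell viability assay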
Description: SANGER: Inhibition of human SK-MEL-3 cell growth in a cell viability assay.

SK-LU-1 = experiment: cells; format: functional, cell-based; conditions: Homo sapiens;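 also: cell viability assay measuring growth inhibition of human SK-LU-1 cells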
Description: SANGER: Inhibition of human SK-LU-1 cell growth in a cell viability assay.

A253 cell line = experiment: cells; format: functional, cell-based; conditions: Homo sapiens;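 also: growth inhibition of A253 cells, read out with a cell viability assay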
Description: SANGER: Inhibition of human A253 cell growth in a cell viability assay.

Panc1005 = experiment: cells; format: functional, cell-based; conditions: Homo sapiens;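 also: growth inhibition of human PANC-10-05 cells, measured by a cell viability assay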
Description: SANGER: Inhibition of human PANC-10-05 cell growth in a cell viability assay.

BFTC-909 = experiment: cells; format: functional, cell-based; conditions: Homo sapiens
Description: SANGER: Inhibition of human BFTC-909 cell growth in a cell viability assay.

BXPC-3 = experiment: cells; format: functional, cell-based; conditions: Homo sapiens;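 also: growth inhibition of human BxPC-3 cells, read out by a cell viability assay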
Description: SANGER: Inhibition of human BxPC-3 cell growth in a cell viability assay.

MOLT-13 = experiment: cells; format: functional, cell-based; conditions: Homo sapiens;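 also: IC50 for suppression of MOLT-13 cell growth, read out with a cell viability assay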
Description: SANGER: Inhibition of human MOLT-13 cell growth in a cell viability assay.

NB14 = experiment: cells; format: functional, cell-based; conditions: Homo sapiens;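 also: growth inhibition of NB14 cells measured with a cell viability assay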
Description: SANGER: Inhibition of human NB14 cell growth in a cell viability assay.

AN3-CA = experiment: cells; format: functional, cell-based; conditions: Homo sapiens;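 also: growth inhibition of human AN3-CA cells measured by a cell viability assay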
Description: SANGER: Inhibition of human AN3-CA cell growth in a cell viability assay.

NB17 = experiment: cells; format: functional, cell-based; conditions: Homo sapiens;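 also: growth inhibition of NB17 cells, read out with a cell viability assay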
Description: SANGER: Inhibition of human NB17 cell growth in a cell viability assay.

CAPAN-1 = experiment: cells; format: functional, cell-based; conditions: Homo sapiens;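 also: growth suppression of CAPAN-1 cells, read out by a cell viability assay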
Description: SANGER: Inhibition of human CAPAN-1 cell growth in a cell viability assay.

FaDu = experiment: cells; format: functional, cell-based; conditions: Homo sapiens;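 also: cell viability readout of growth inhibition in FaDu cells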
Description: SANGER: Inhibition of human FADU cell growth in a cell viability assay.

Calu-3 = experiment: cells; format: functional, cell-based; conditions: Homo sapiens;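 also: growth inhibition of human Calu-3 cells, determined with a cell viability assay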
Description: SANGER: Inhibition of human Calu-3 cell growth in a cell viability assay.

HCC1395 = experiment: cells; format: functional, cell-based; conditions: Homo sapiens;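 also: growth inhibition of HCC1395 cells, read out by a cell viability assay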
Description: SANGER: Inhibition of human HCC1395 cell growth in a cell viability assay.

MIA PaCa-2 = experiment: cells; format: functional, cell-based; conditions: Homo sapiens;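 also: growth inhibition of MIA PaCa-2 cells, read out with a cell viability assay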
Description: SANGER: Inhibition of human MIA-PaCa-2 cell growth in a cell viability assay.

NCI-H650 = experiment: cells; format: functional, cell-based; conditions: Homo sapiens;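 also: growth inhibition of NCI-H650 cells, read out by a viability assay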
Description: SANGER: Inhibition of human NCI-H650 cell growth in a cell viability assay.

U2OS = experiment: cells; format: functional, cell-based, U-2-OS; conditions: Homo sapiens;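 also: growth inhibition of human U-2-OS cells, determined with a cell viability assay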
Description: SANGER: Inhibition of human U-2-OS cell growth in a cell viability assay.

RPMI-7951 = experiment: cells; format: functional, cell-based; conditions: Homo sapiens
Description: SANGER: Inhibition of human RPMI-7951 cell growth in a cell viability assay.

A204 = experiment: cells; format: functional, cell-based; conditions: Homo sapiens;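 also: growth inhibition of human A204 cells, read out with a cell viability assay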
Description: SANGER: Inhibition of human A204 cell growth in a cell viability assay.

GMS-10 = experiment: cells; format: functional, cell-based; conditions: Homo sapiens;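 also: growth inhibition of GMS-10 cells, read out as cell viability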
Description: SANGER: Inhibition of human GMS-10 cell growth in a cell viability assay.

CHP-212 = experiment: cells; format: functional, cell-based; conditions: Homo sapiens
Description: SANGER: Inhibition of human CHP-212 cell growth in a cell viability assay.

HCC1954 = experiment: cells; format: functional, cell-based; conditions: Homo sapiens;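 also: growth inhibition of human HCC1954 cells, read out with a cell viability assay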
Description: SANGER: Inhibition of human HCC1954 cell growth in a cell viability assay.

KYSE-270 = experiment: cells; format: functional, cell-based; conditions: Homo sapiens;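 also: cell growth inhibition measured with a viability assay in the human KYSE-270 line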
Description: SANGER: Inhibition of human KYSE-270 cell growth in a cell viability assay.

C3A = experiment: cells; format: functional, cell-based; conditions: Homo sapiens;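 also: growth inhibition of C3A human cells, quantified with a cell viability readout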
Description: SANGER: Inhibition of human C3A cell growth in a cell viability assay.

KYSE-450 = experiment: cells; format: functional, cell-based; conditions: Homo sapiens;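 also: cell growth inhibition measured by a viability assay in human KYSE-450 cells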
Description: SANGER: Inhibition of human KYSE-450 cell growth in a cell viability assay.

RCM-1 = experiment: cells; format: functional, cell-based; conditions: Homo sapiens;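 also: growth inhibition of the RCM-1 line, determined with a cell viability readout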
Description: SANGER: Inhibition of human RCM-1 cell growth in a cell viability assay.

Daoy = experiment: cells; format: functional, cell-based; conditions: Homo sapiens;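 also: daoy cell growth inhibition, read out as cell viability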
Description: SANGER: Inhibition of human Daoy cell growth in a cell viability assay.

HuP-T4 = experiment: cells; format: functional, cell-based; conditions: Homo sapiens;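 also: cell viability assay measuring how much HuP-T4 cell growth is inhibited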
Description: SANGER: Inhibition of human HuP-T4 cell growth in a cell viability assay.

CAL-62 = experiment: cells; format: functional, cell-based; conditions: Homo sapiens;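 also: growth inhibition of CAL-62 cells, read out with a cell viability assay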
Description: SANGER: Inhibition of human CAL-62 cell growth in a cell viability assay.

SW-620 = experiment: cells; format: functional, cell-based; conditions: Homo sapiens;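 also: growth inhibition of human SW-620 cells, measured by a cell viability assay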
Description: SANGER: Inhibition of human SW620 cell growth in a cell viability assay.

T47D = experiment: cells; format: functional, cell-based; conditions: Homo sapiens;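 also: growth inhibition of human T47D cells, measured with a cell viability assay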
Description: SANGER: Inhibition of human T47D cell growth in a cell viability assay.

HT1197 = experiment: cells; format: functional, cell-based, HT-1197; conditions: Homo sapiens
Description: SANGER: Inhibition of human HT-1197 cell growth in a cell viability assay.

EGI-1 = experiment: cells; format: functional, cell-based; conditions: Homo sapiens;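 also: cell viability readout used to gauge growth inhibition of EGI-1 cells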
Description: SANGER: Inhibition of human EGI-1 cell growth in a cell viability assay.

ABC-1 = experiment: cells; format: functional, cell-based; conditions: Homo sapiens;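 also: growth inhibition of human ABC-1 cells, read out by a cell viability assay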
Description: SANGER: Inhibition of human ABC-1 cell growth in a cell viability assay.

IGR-1 = experiment: cells; format: functional, cell-based; conditions: Homo sapiens;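 also: growth inhibition of human IGR-1 cells, read out with a cell viability assay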
Description: SANGER: Inhibition of human IGR-1 cell growth in a cell viability assay.

TYK-nu = experiment: cells; format: functional, cell-based; conditions: Homo sapiens;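 also: growth inhibition of human TYK-nu cells, read out by a cell viability assay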
Description: SANGER: Inhibition of human TYK-nu cell growth in a cell viability assay.

HSC-2 = experiment: cells; format: functional, cell-based; conditions: Homo sapiens;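 also: growth inhibition of human HSC-2 cells, read out by a cell viability assay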
Description: SANGER: Inhibition of human HSC-2 cell growth in a cell viability assay.

SW780 = experiment: cells; format: functional, cell-based; conditions: Homo sapiens;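 also: growth inhibition of the cells, read out with a cell viability assay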
Description: SANGER: Inhibition of human SW780 cell growth in a cell viability assay.

MDA-MB-415 = experiment: cells; format: functional, cell-based; conditions: Homo sapiens
CAMA-1 = experiment: cells; format: functional, cell-based; conditions: Homo sapiens;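 also: growth inhibition of CAMA-1 cells, read out with a cell viability assay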
Description: SANGER: Inhibition of human CAMA-1 cell growth in a cell viability assay.

C32 = experiment: cells; format: functional, cell-based; conditions: Homo sapiens;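 also: cell viability assay, with IC50 reflecting inhibition of C32 cell growth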
Description: SANGER: Inhibition of human C32 cell growth in a cell viability assay.

NCI-H1882 = experiment: cells; format: functional, cell-based; conditions: Homo sapiens;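 also: growth inhibition of the cell line, determined with a viability assay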
Description: SANGER: Inhibition of human NCI-H1882 cell growth in a cell viability assay.

HSC-4 = experiment: cells; format: functional, cell-based; conditions: Homo sapiens;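 also: growth inhibition of human HSC-4 cells, read out with a cell viability assay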
Description: SANGER: Inhibition of human HSC-4 cell growth in a cell viability assay.

IMR-5 = experiment: cells; format: functional, cell-based; conditions: Homo sapiens;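 also: growth inhibition of human IMR-5 cells, read out with a cell viability assay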
Description: SANGER: Inhibition of human IMR-5 cell growth in a cell viability assay.

OPM-2 = experiment: cells; format: functional, cell-based; conditions: Homo sapiens;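 also: growth of OPM-2 cells measured with a viability assay, IC50 for suppression of proliferation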
Description: SANGER: Inhibition of human OPM-2 cell growth in a cell viability assay.

MKN-45 = experiment: cells; format: functional, cell-based; conditions: Homo sapiens;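 also: growth inhibition of human MKN-45 cells, measured with a cell viability assay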
Description: SANGER: Inhibition of human MKN45 cell growth in a cell viability assay.

NCI-H64 = experiment: cells; format: functional, cell-based; conditions: Homo sapiens;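 also: growth inhibition of NCI-H64 cells, read out with a cell viability assay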
Description: SANGER: Inhibition of human NCI-H64 cell growth in a cell viability assay.

SCC-3 = experiment: cells; format: functional, cell-based; conditions: Homo sapiens;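 also: cell viability assay measuring inhibition of SCC-3 cell growth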
Description: SANGER: Inhibition of human SCC-3 cell growth in a cell viability assay.

LU-165 = experiment: cells; format: functional, cell-based; conditions: Homo sapiens
Description: SANGER: Inhibition of human LU-165 cell growth in a cell viability assay.

SNU-C1 = experiment: cells; format: functional, cell-based; conditions: Homo sapiens;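 also: growth inhibition of SNU-C1 human cells, read out by a cell viability assay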
Description: SANGER: Inhibition of human SNU-C1 cell growth in a cell viability assay.

MEL-JUSO = experiment: cells; format: functional, cell-based; conditions: Homo sapiens;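 also: growth inhibition of human MEL-JUSO cells, read out with a cell viability assay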
Description: SANGER: Inhibition of human MEL-JUSO cell growth in a cell viability assay.

CESS = experiment: SANGER: Inhibition of human CESS cell growth in a cell viability assay.; format: functional, cell-based
SK-MEL-28 = experiment: cells; format: functional, cell-based; conditions: Homo sapiens;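 also: growth inhibition of human SK-MEL-28 cells, read out with a cell viability assay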
Description: SANGER: Inhibition of human SK-MEL-28 cell growth in a cell viability assay.

NCI-H1963 = experiment: cells; format: functional, cell-based; conditions: Homo sapiens;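 also: cell growth inhibition of the human line, determined with a cell viability assay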
Description: SANGER: Inhibition of human NCI-H1963 cell growth in a cell viability assay.

ARH-77 = experiment: cells; format: functional, cell-based; conditions: Homo sapiens
Description: SANGER: Inhibition of human ARH-77 cell growth in a cell viability assay.

RL = experiment: cells; format: functional, cell-based; conditions: Homo sapiens
Description: SANGER: Inhibition of human RL cell growth in a cell viability assay.

CHP-126 = experiment: cells; format: functional, cell-based; conditions: Homo sapiens
Description: SANGER: Inhibition of human CHP-126 cell growth in a cell viability assay.

K052 = experiment: cells; format: functional, cell-based; conditions: Homo sapiens
Description: SANGER: Inhibition of human K052 cell growth in a cell viability assay.

SU-DHL-1 = experiment: SANGER: Inhibition of human SU-DHL-1 cell growth in a cell viability assay.; format: functional, cell-based
G-361 = experiment: cells; format: functional, cell-based; conditions: Homo sapiens
HCT-15 = experiment: cells; format: functional, cell-based; conditions: Homo sapiens
Description: SANGER: Inhibition of human HCT-15 cell growth in a cell viability assay.

NCI-H2141 = experiment: cells; format: functional, cell-based; conditions: Homo sapiens
Description: SANGER: Inhibition of human NCI-H2141 cell growth in a cell viability assay.

CC(=O)c1c(C)c2cnc(Nc3ccc(N4CCNCC4)cn3)nc2n(C2CCCC2)c1=O [PALBOCICLIB]
IC50 (ASPC1): 253 nM | IC50 (HCC2157): > 4000 nM | IC50 (UACC-62): > 4000 nM | IC50 (SK-MEL3): > 4000 nM | IC50 (SK-LU-1): 1620 nM | IC50 (A253 cell line): > 4000 nM | IC50 (Panc1005): > 4000 nM | IC50 (BFTC-909): > 4000 nM | IC50 (BXPC-3): > 4000 nM | IC50 (MOLT-13): 1010 nM | IC50 (NB14): 484 nM | IC50 (AN3-CA): > 4000 nM | IC50 (NB17): > 4000 nM | IC50 (CAPAN-1): > 4000 nM | IC50 (FaDu): > 4000 nM | IC50 (Calu-3): > 4000 nM | IC50 (HCC1395): > 4000 nM | IC50 (MIA PaCa-2): 2360 nM | IC50 (NCI-H650): > 4000 nM | IC50 (U2OS): 3730 nM | IC50 (RPMI-7951): 2760 nM | IC50 (A204): 634 nM | IC50 (GMS-10): > 4000 nM | IC50 (CHP-212): 594 nM | IC50 (HCC1954): > 4000 nM | IC50 (KYSE-270): > 4000 nM | IC50 (C3A): > 4000 nM | IC50 (KYSE-450): > 4000 nM | IC50 (RCM-1): > 4000 nM | IC50 (Daoy): > 4000 nM | IC50 (HuP-T4): > 4000 nM | IC50 (CAL-62): 1610 nM | IC50 (SW-620): 2260 nM | IC50 (T47D): 1680 nM | IC50 (HT1197): > 4000 nM | IC50 (EGI-1): 2470 nM | IC50 (ABC-1): 1790 nM | IC50 (IGR-1): > 4000 nM | IC50 (TYK-nu): 998 nM | IC50 (HSC-2): > 4000 nM | IC50 (SW780): 1960 nM | IC50 (MDA-MB-415): > 4000 nM | IC50 (CAMA-1): 834 nM | IC50 (C32): > 4000 nM

CCNC(=O)c1noc(-c2cc(C(C)C)c(O)cc2O)c1-c1ccc(CN2CCOCC2)cc1 [LUMINESPIB]
IC50 (ASPC1): > 256 nM | IC50 (HCC2157): 57.3 nM | IC50 (UACC-62): 121 nM | IC50 (SK-MEL3): 48 nM | IC50 (SK-LU-1): 18.5 nM | IC50 (A253 cell line): 50.5 nM | IC50 (NCI-H1882): > 256 nM | IC50 (Panc1005): 17.5 nM | IC50 (BFTC-909): 31.3 nM | IC50 (HSC-4): 172 nM | IC50 (BXPC-3): 43.4 nM | IC50 (IMR-5): 44.9 nM | IC50 (AN3-CA): 10.2 nM | IC50 (OPM-2): > 256 nM | IC50 (MKN-45): 206 nM | IC50 (NCI-H64): > 256 nM | IC50 (CAPAN-1): 71.4 nM | IC50 (FaDu): 67.4 nM | IC50 (Calu-3): 37.9 nM | IC50 (HCC1395): > 256 nM | IC50 (MIA PaCa-2): 15.1 nM | IC50 (NCI-H650): 21.2 nM | IC50 (SCC-3): > 256 nM | IC50 (LU-165): 154 nM | IC50 (U2OS): 39.4 nM | IC50 (SNU-C1): > 256 nM | IC50 (RPMI-7951): 6.31 nM | IC50 (A204): 21.2 nM | IC50 (GMS-10): 134 nM | IC50 (MEL-JUSO): 16.8 nM | IC50 (CHP-212): 22.1 nM | IC50 (HCC1954): > 256 nM | IC50 (KYSE-270): 10.6 nM | IC50 (C3A): 24.8 nM | IC50 (CESS): 31.2 nM | IC50 (KYSE-450): 13.5 nM | IC50 (RCM-1): 157 nM | IC50 (SK-MEL-28): > 256 nM | IC50 (Daoy): 6.95 nM | IC50 (HuP-T4): 65.9 nM | IC50 (CAL-62): 25.7 nM | IC50 (SW-620): 19.2 nM | IC50 (T47D): > 256 nM | IC50 (HT1197): 16.8 nM | IC50 (NCI-H1963): 51.8 nM | IC50 (EGI-1): 180 nM | IC50 (ABC-1): 87.6 nM | IC50 (ARH-77): 53.9 nM | IC50 (IGR-1): 20.5 nM | IC50 (TYK-nu): > 256 nM | IC50 (RL): > 256 nM | IC50 (CHP-126): 75.7 nM | IC50 (K052): 171 nM | IC50 (HSC-2): 5.18 nM | IC50 (SU-DHL-1): 69.2 nM | IC50 (G-361): 26.8 nM | IC50 (HCT-15): 66 nM | IC50 (SW780): > 256 nM | IC50 (NCI-H2141): 238 nM | IC50 (MDA-MB-415): 197 nM | IC50 (CAMA-1): 63 nM | IC50 (C32): > 256 nM

O=c1[nH]c2ccccc2n1C1CCN(Cc2ccc(-c3nc4cc5[nH]cnc5cc4nc3-c3ccccc3)cc2)CC1
IC50 (ASPC1): > 2560 nM | IC50 (HCC2157): > 2560 nM | IC50 (UACC-62): > 2560 nM | IC50 (SK-MEL3): > 2560 nM | IC50 (SK-LU-1): > 2560 nM | IC50 (A253 cell line): > 2560 nM | IC50 (NCI-H1882): > 2560 nM | IC50 (Panc1005): > 2560 nM | IC50 (BFTC-909): > 2560 nM | IC50 (HSC-4): > 2560 nM | IC50 (BXPC-3): 2220 nM | IC50 (IMR-5): > 2560 nM | IC50 (AN3-CA): 1660 nM | IC50 (OPM-2): > 2560 nM | IC50 (MKN-45): > 2560 nM | IC50 (NCI-H64): > 2560 nM | IC50 (CAPAN-1): > 2560 nM | IC50 (FaDu): > 2560 nM | IC50 (Calu-3): > 2560 nM | IC50 (HCC1395): > 2560 nM | IC50 (MIA PaCa-2): > 2560 nM | IC50 (NCI-H650): > 2560 nM | IC50 (SCC-3): > 2560 nM | IC50 (LU-165): > 2560 nM | IC50 (U2OS): > 2560 nM | IC50 (SNU-C1): 2010 nM | IC50 (RPMI-7951): > 2560 nM | IC50 (A204): > 2560 nM | IC50 (GMS-10): > 2560 nM | IC50 (MEL-JUSO): > 2560 nM | IC50 (CHP-212): > 2560 nM | IC50 (HCC1954): > 2560 nM | IC50 (KYSE-270): > 2560 nM | IC50 (C3A): > 2560 nM | IC50 (CESS): > 2560 nM | IC50 (KYSE-450): > 2560 nM | IC50 (RCM-1): > 2560 nM | IC50 (SK-MEL-28): > 2560 nM | IC50 (Daoy): > 2560 nM | IC50 (HuP-T4): > 2560 nM | IC50 (CAL-62): > 2560 nM | IC50 (SW-620): > 2560 nM | IC50 (T47D): 516 nM | IC50 (HT1197): > 2560 nM | IC50 (NCI-H1963): > 2560 nM | IC50 (EGI-1): > 2560 nM | IC50 (ABC-1): > 2560 nM | IC50 (ARH-77): > 2560 nM | IC50 (IGR-1): > 2560 nM | IC50 (TYK-nu): > 2560 nM | IC50 (RL): > 2560 nM | IC50 (CHP-126): > 2560 nM | IC50 (K052): > 2560 nM | IC50 (HSC-2): > 2560 nM | IC50 (SU-DHL-1): > 2560 nM | IC50 (G-361): > 2560 nM | IC50 (HCT-15): > 2560 nM | IC50 (SW780): > 2560 nM | IC50 (NCI-H2141): > 2560 nM | IC50 (MDA-MB-415): 1730 nM | IC50 (CAMA-1): > 2560 nM | IC50 (C32): > 2560 nM
